The IC50 is the midpoint of a concentration-inhibition curve. A higher IC50 goes with a need for much substance.

For 20 compounds, IC50 results are on record in US20260158009A1 (GENZYME CORPORATION, priority 2023, published 2026).

Experiment [1] deals with T1, hRIPK1 (aa 1-375) fusion protein (Homo sapiens, UniProt Q13546).
T1 construct: hRIPK1 (aa 1-375) fusion protein
T1 sequence (Q13546 1-375): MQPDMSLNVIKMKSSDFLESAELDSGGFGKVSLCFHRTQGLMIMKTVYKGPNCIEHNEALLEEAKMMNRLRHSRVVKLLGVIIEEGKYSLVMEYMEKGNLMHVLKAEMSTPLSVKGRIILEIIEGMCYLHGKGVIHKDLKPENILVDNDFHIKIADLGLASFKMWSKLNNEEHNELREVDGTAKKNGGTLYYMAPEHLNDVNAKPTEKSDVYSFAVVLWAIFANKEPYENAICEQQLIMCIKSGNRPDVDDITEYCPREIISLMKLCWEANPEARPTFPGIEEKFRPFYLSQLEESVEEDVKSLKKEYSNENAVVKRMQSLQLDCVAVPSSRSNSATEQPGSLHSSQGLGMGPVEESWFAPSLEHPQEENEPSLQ
Description: ADP-Glo kinase assay: catalytic activity of RIPK1 (autophosphorylation, conversion of ATP to ADP). The class given is biochemical. The procedure, abridged:
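hRIPK1 (aa 1-375) fusion protein (3.6 μg/ml final) was preincubated 30 min at rt with compound (33300-1.69 nM, 1% DMSO), then 50 μM ATP was added for 240 min at rt. ADP from autophosphorylation was measured by ADP-Glo luminescence and curves fitted by nonlinear regression.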
(ADP-Glo turns the ADP formed in a reaction into a luminescent signal.)

The subject of experiment [2] is U937 cells. Briefly: Cellular assay in U937 cells: activity of RIPK1 inhibitors on TNFα/zVAD.fmk-induced cell death (necroptosis), CellTiter 96 AQueous (MTS) readout. The class given is cell-based. The note with it: Homo sapiens, U-937. An outline of the steps:
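Necroptosis was measured by viable-cell MTS reduction (4 h, absorbance 490 nm) after overnight (18–24 h) 37° C culture. Cell suspensions of U937 cells carried TNFα (100 ng/ml) plus zVAD.fmk (50 μM) before compound was added. A 10-point curve (10 μM–0.26 nM or 1 μM–0.07 nM) was run in duplicate, normalised to the control lacking TNFα/zVAD.fmk.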

Structures are written as SMILES.

As for `Cc1ccc([C@@H]2CCON2C(=O)[C@H]2CC[C@H](Cc3ccc(C)c(C(N)=O)c3)CC2)cc1` [compound 131, trans-2-methyl-5-[[4-[(3S)-3-(p-tolyl)isoxazolidine-2-carbonyl]cyclohexyl]methyl]benzamide], the IC50 in experiment [1] is 15 nM; in experiment [2], 5 nM.
On the same counts, the results for `Cn1ncc2ccc(C[C@H]3CC[C@H](C(=O)N4OCC[C@H]4c4cc(F)cc(C#N)c4)CC3)cc21` [compound 294, trans-3-fluoro-5-[(3S)-2-[4-[(1-methylindazol-6-yl)methyl]cyclohexanecarbonyl]isoxazolidin-3-yl]benzonitrile] are 4 nM and 1 nM.
Turning to `Cc1ncc(C[C@H]2CC[C@H](C(=O)N3OCC[C@H]3c3cnc(C)c(F)c3)CC2)c(C)n1` [compound 393, [4-[(2,4-dimethylpyrimidin-5-yl)methyl]cyclohexyl]-[(3S)-3-(5-fluoro-6-methylpyridin-3-yl)-1,2-oxazolidin-2-yl]methanone], the IC50 in experiment [1] was 51 nM; in experiment [2], 33 nM.
As for `Cc1nc2c(F)cc(C[C@H]3CC[C@H](C(=O)N4OCC[C@H]4c4cnccn4)CC3)cn2n1` [compound 340, trans-[4-[(8-fluoro-2-methyl-[1,2,4]triazolo[1,5-a]pyridin-6-yl)methyl]cyclohexyl]-[(3S)-3-pyrazin-2-yl-1,2-oxazolidin-2-yl]methanone], the IC50 in experiment [1] stood at 25 nM; in experiment [2], 77 nM.
On the same counts, the results for `NC(=O)c1ccc2c(ccn2C[C@H]2CC[C@H](C(=O)N3OCC[C@H]3c3cnccn3)CC2)c1` [compound 251, trans-1-[[4-[(3S)-3-pyrazin-2-ylisoxazolidine-2-carbonyl]cyclohexyl]methyl]indole-5-carboxamide] are 8 nM and 17 nM.
On the same counts, the results for `N#Cc1cc(F)c2cnn(C[C@H]3CC[C@H](C(=O)N4OCC[C@H]4c4cc(F)cc(F)c4)CC3)c2c1` [compound 33, trans-1-((4-((S)-3-(3,5-difluorophenyl)isoxazolidine-2-carbonyl)cyclohexyl)methyl)-4-fluoro-1H-indazole-6-carbonitrile] are 19 nM and 2 nM.
On the same counts, the results for `Cc1ccc([C@@H]2CCON2C(=O)[C@H]2CC[C@H](Cc3cc(F)c4nc(C)nn4c3)CC2)cn1` [compound 341, trans-[4-[(8-fluoro-2-methyl-[1,2,4]triazolo[1,5-a]pyridin-6-yl)methyl]cyclohexyl]-[(3S)-3-(6-methylpyridin-3-yl)-1,2-oxazolidin-2-yl]methanone] are 81 nM and 114 nM.
On to `NC(=O)c1cc(C[C@H]2CC[C@H](C(=O)N3OCC[C@H]3c3cnccn3)CC2)ccc1F` [compound 193, trans-2-fluoro-5-[[4-[(3S)-3-pyrazin-2-ylisoxazolidine-2-carbonyl]cyclohexyl]methyl]benzamide], for which the half-inhibitory concentration (IC50) was found to be 10 nM in experiment [1] and 14 nM in experiment [2].
On the same counts, the results for `Cc1c(C#N)cncc1C[C@H]1CC[C@H](C(=O)N2OCC[C@H]2c2cc(F)cc(F)c2)CC1` [compound 275, trans-5-[[4-[(3S)-3-(3,5-difluorophenyl)isoxazolidine-2-carbonyl]cyclohexyl]methyl]-4-methyl-pyridine-3-carbonitrile] are 8 nM and 9 nM.
On the same counts, the results for `N#Cc1cc(C[C@H]2CC[C@H](C(=O)N3OCC[C@H]3c3ccc(F)cc3)CC2)ccc1F` [compound 242, trans-2-fluoro-5-[[4-[(3S)-3-(4-fluorophenyl)isoxazolidine-2-carbonyl]cyclohexyl]methyl]benzonitrile] are 21 nM and 16 nM.
As to `Cn1cc(C[C@H]2CC[C@H](C(=O)N3OCC[C@H]3c3cc(F)cc(C#N)c3)CC2)nn1` [Compound 258, trans-3-fluoro-5-[(3S)-2-[4-[(1-methyltriazol-4-yl)methyl]cyclohexanecarbonyl]isoxazolidin-3-yl]benzonitrile], the IC50 is 71 nM in experiment [1] and 862 nM in experiment [2].
On to `Cc1cc(C[C@H]2CC[C@H](C(=O)N3OCC[C@H]3c3cc(F)cc(C#N)c3)CC2)cnn1` [compound 302, trans-3-fluoro-5-[(3S)-2-[4-[(6-methylpyridazin-4-yl)methyl]cyclohexanecarbonyl]isoxazolidin-3-yl]benzonitrile], for which the half-maximal inhibitory concentration (IC50) in experiment [1] was 31 nM; in experiment [2], 37 nM.
For `Cc1ccc([C@@H]2CCON2C(=O)[C@H]2CC[C@H](Cc3ccnn3C)CC2)cn1` [compound 397, trans-[4-[(2-methylpyrazol-3-yl)methyl]cyclohexyl]-[(3S)-3-(6-methylpyridin-3-yl)-1,2-oxazolidin-2-yl]methanone], the half-maximal inhibitory concentration (IC50) in experiment [1] came to 61 nM; in experiment [2], 163 nM.
On to `Cc1c(C#N)ncn1C[C@H]1CC[C@H](C(=O)N2OCC[C@H]2c2cc(F)cc(F)c2)CC1` [compound 91, trans-1-((4-((S)-3-(3,5-difluorophenyl)isoxazolidine-2-carbonyl)cyclohexyl)methyl)-5-methyl-1H-imidazole-4-carbonitrile], for which the IC50 in experiment [1] came out at 39 nM; in experiment [2], 67 nM.
Turning to `N#Cc1cncc(C[C@H]2CC[C@H](C(=O)N3OCC[C@H]3c3cnccn3)CC2)c1` [compound 140, trans-5-[[4-[(3S)-3-pyrazin-2-ylisoxazolidine-2-carbonyl]cyclohexyl]methyl]pyridine-3-carbonitrile], the IC50 was 40 nM in experiment [1] and 173 nM in experiment [2].
On the same counts, the results for `Cc1ncc(F)cc1C[C@H]1CC[C@H](C(=O)N2OCC[C@H]2c2cncc(F)c2)CC1` [compound 178, trans-[4-[(5-fluoro-2-methyl-3-pyridyl)methyl]cyclohexyl]-[(3S)-3-(5-fluoro-3-pyridyl)isoxazolidin-2-yl]methanone] are 38 nM and 6 nM.
On to `Cc1nc2c(C)cc(C[C@H]3CC[C@H](C(=O)N4OCC[C@H]4c4csc(C)n4)CC3)cn2n1` [compound 361, trans-[4-(2,8-Dimethyl-[1,2,4]triazolo[1,5-a]352yridine-6-ylmethyl)-cyclohexyl]-[(S)-3-(2-methyl-thiazol-4-yl)-isoxazolidin-2-yl]-methanone], for which the IC50 in experiment [1] was found to be 57 nM; in experiment [2] it was 35 nM.
On the same counts, the results for `NC(=O)c1cnc2cnn(C[C@H]3CC[C@H](C(=O)N4OCC[C@H]4c4cc(F)cc(F)c4)CC3)c2c1` [compound 79, trans-1-((4-((S)-3-(3,5-difluorophenyl)isoxazolidine-2-carbonyl)cyclohexyl)methyl)-1H-pyrazolo[4,3-b]pyridine-6-carboxamide] are 22 nM and 13 nM.
On to `CNC(=O)c1ccc(F)c(C[C@H]2CC[C@H](C(=O)N3OCC[C@H]3c3cncc(C#N)c3)CC2)c1` [compound 176, trans-3-[[4-[(3S)-3-(5-cyano-3-pyridyl)isoxazolidine-2-carbonyl]cyclohexyl]methyl]-4-fluoro-N-methyl-benzamide], for which the results for the IC50 in experiment [1] and in experiment [2] were 13 nM and 15 nM, respectively.
On the same counts, the results for `N#Cc1cc(F)cc([C@@H]2CCON2C(=O)[C@H]2CC[C@H](Cn3ncc4cc(C#N)ccc43)CC2)c1` [compound 53, trans-1-((4-((S)-3-(3-cyano-5-fluorophenyl)isoxazolidine-2-carbonyl)cyclohexyl)methyl)-1H-indazole-5-carbonitrile] are 17 nM and 4 nM.
